Reference: patent publication US4690891A, “Method and the microorganism and enzyme used therein for degrading the xanthan molecule” (Exxon Research and Engineering Company, priority 1985, dated 1987)
Where two headings read alike, the source gives them in different places.

Legend:
xanthan depolymerase [1] = test: Substrate specificity of xanthan depolymerase; assay type: biochemical, Bacillus sp. (culture NRRL B-15992); settings: forty μg of enzyme per assay
Procedure: (§1) A novel xanthan depolymerase was purified from the culture supernatant and examined for its effect on degrading xanthan. In the following, enzyme assays were conducted with either viscosity or reducing sugar measurements by incubating a 1.25 ml xanthan stock solution and a small amount of enzyme(s) at 25° C. Xanthan stock solution was prepared by dissolving 0.188% xanthan, 0.4 mM MgSO4, and 0.03 mM MnSO4 in 0.05 M sodium acetate buffer pH 5.4. At certain time intervals samples were taken for either viscosity or reducing sugar assay. Viscosity was measured at 25° C. (using a Contraves low-shear 30 rheometer, Middlesex, U.K. at a shear rate of 1.3 sec.^-1 1). The rheometer was equipped with a refrigerated circulating bath (Neslab Endoccal bath, Portsmouth, N.H.). Reducing sugars, calculated as glucose, were determined by the method of Somogyi, M., (1945), "A New Reagent for the Determination of Sugars", J. Biol. Chem. 160, 61-69. […] The changes in viscosity and reducing sugars between two time intervals (1.0 min to 2.0 min for Δ cps, 0.5 min to 1.5 min for Δ reducing sugars) were measured. Enzyme activity (in units) was expressed as Δ cps/min (depolymerase) or Δμmoles reducing sugar group released (as glucose) per min. (for both endo and exoglucanases). Specific enzyme activity was expressed as units per mg of protein.

xanthan depolymerase [2] = test: Inhibition of xanthan depolymerase activity, assayed viscosimetrically; assay type: biochemical, Bacillus sp. (culture NRRL B-15992)
Procedure: as §1
Various chemicals including thiols, metal ions and metal-chelating agents were tested for inhibition of xanthan depolymerase activity. These chemicals (at 1 mM concentration unless otherwise stated) were added into xanthan stock solutions. Enzyme activity was assayed viscosimetrically.

culture B-15992 [3] = test: Effect of chemicals and biocide on growth of culture B-15992 in xanthan broth (viscosity loss); assay type: cell-based, Bacillus sp. / Flavobacterium sp. mixed culture NRRL B-15992
Procedure: Chemicals and biocides, including those used in enhanced oil recovery operations were studied for their effect on the growth of culture B-15992 and on the activity of xanthan-degrading enzyme(s). Both aerobic and anaerobic conditions were tested. In order to simulate the conditions used in EOR field operation, xanthan was produced in the laboratory by growing Xanthomonas campestris according to the published procedure, Jeanes, A., et al, (1976), "Polysaccharide (xanthan) of Xanthomonas campestris NRRL B-1459: Procedures for culture maintenance and polysaccharide production, purification and analysis". Agricultural Research Service, U.S. Department of Agriculture AR-NC-51. After centrifugation, the culture broth was autoclaved and was diluted with brine to about 300 cps viscosity. A cell suspension of culture B-15992 obtained from colonies grown on agar plates was used as the innoculum. Growth of B-15992 was followed by monitoring decreases of viscosity of the culture broth and by microscopic observation.

culture B-15992 [4] = test system: culture B-15992
Source text: The stable mixed culture is hereinafter designated NRRL B-15992.

Compound: OC[C@H]1O[C@@H](O[C@H]2[C@H](O)[C@@H](O)C(O)O[C@@H]2CO)[C@H](O)[C@@H](O)[C@@H]1O (single isomer, unassigned) [D(+) cellobiose]
- Enzyme Activity (μmoles reducing sugar/min) (xanthan depolymerase [1]): 0 μmoles reducing sugar/min

Compound: c1cnc2c(c1)ccc1cccnc12 [1,10-phenanthroline]
- % Inhibition (xanthan depolymerase [2]; inhibitor 1 mM): 0%

Compound: O=C(O)c1cc(SSc2ccc([N+](=O)[O-])c(C(=O)O)c2)ccc1[N+](=O)[O-] [5,5'-dithio-bis-2-n-nitrobenzoic acid]
- % Inhibition (xanthan depolymerase [2]; inhibitor 1 mM): 0%

Compound: Oc1cccc2cccnc12 [8-hydroxyquinoline]
- % Inhibition (xanthan depolymerase [2]): 0%

Compound: OC[C@H]1O[C@H](O[C@H]2O[C@H](CO)[C@@H](O)[C@H](O)[C@H]2O)[C@H](O)[C@@H](O)[C@@H]1O [D(+) trehalose]
- Enzyme Activity (μmoles reducing sugar/min) (xanthan depolymerase [1]): 0 μmoles reducing sugar/min

Compound: N#CC(Br)(Br)C(N)=O [DBNPA, 2,2-dibromo-3-nitrilopropionamide]
- prevention of growth of B-15992 (culture B-15992 [3]; 10 ppm): not effective in preventing the growth of B-15992
- time until solution viscosity was lost (culture B-15992 [3]; 10 ppm, aerobic): ≤ 5 days
- Viscosity (cps after days incubation) Aerobic (culture B-15992 [3]; 10 ppm, aerobic, 5 days): 1.5 cps
- Viscosity (cps after days incubation) Anaerobic (culture B-15992 [3]; 10 ppm): 300 cps

Compound: [Na+].[O-]c1cc(Cl)c(Cl)cc1Cl [Dowicide B, sodium trichlorophenate]
- inhibition of xanthan depolymerase activity (xanthan depolymerase [2]; 100 ppm): failed to inhibit

Compound: O=C(O)CN(CCN(CC(=O)O)CC(=O)O)CC(=O)O [EDTA]
- % Inhibition (xanthan depolymerase [2]): 0%

Compound: C=O [HCHO, formaldehyde]
- inhibition of xanthan depolymerase activity (xanthan depolymerase [2]): not inhibited
- time for B-15992 to degrade the xanthan solution (culture B-15992 [3]; 25 ppm, aerobic): 9 days
- Viscosity (cps after days incubation) Aerobic (culture B-15992 [3]; 25 ppm, aerobic, 9 days, about 300 cps at start): 1.5 cps
- Viscosity (cps after days incubation) Anaerobic (culture B-15992 [3]; 25 ppm): 300 cps
- prevention of growth of B-15992 (culture B-15992 [3]; 25 ppm, compared with 10 ppm DBNPA): somewhat more effective
- Viscosity (cps after days incubation) Aerobic (culture B-15992 [3]; 50 ppm, aerobic): 300 cps
- Viscosity (cps after days incubation) Anaerobic (culture B-15992 [3]; 50 ppm): 300 cps
- changes in solution viscosity or cell growth (culture B-15992 [3]; 50 ppm, during 30 days of incubation): no changes in solution viscosity or cell growth

Compound: [Cl-].[K+] [KCl]
- inhibition of xanthan depolymerase activity (xanthan depolymerase [2]; 1 mM): not inhibited

Compound: [K+].[OH-] [KOH]
- inhibition of xanthan depolymerase activity (xanthan depolymerase [2]; 5.0 mM (Trizma ph 8.5)): not inhibited

Compound: N#CSCSC#N [MBT 3522, methylene bisthiocyanate]
- inhibition of xanthan depolymerase activity (xanthan depolymerase [2]; 100 ppm): failed to inhibit

Compound: CCN1C(=O)C=CC1=O [N--ethylmaleimide]
- % Inhibition (xanthan depolymerase [2]; inhibitor 1 mM): 40%

Compound: O=S([O-])S(=O)[O-].[Na+].[Na+] [Na2 S2 O4, sodium dithionite]
- inhibition of xanthan depolymerase activity (xanthan depolymerase [2]; 0.2%): not inhibited
- inhibition of xanthan depolymerase activity (xanthan depolymerase [2]; 100 ppm): not inhibited
- Viscosity (cps after days incubation) Aerobic (culture B-15992 [3]; 75 ppm, aerobic, xanthan broth about 300 cps at start): 1.0 cps
- Viscosity (cps after days incubation) Anaerobic (culture B-15992 [3]; 75 ppm, about 300 cps at start): 300 cps

Compound: [Cl-].[Na+] [NaCl]
- inhibition of xanthan depolymerase activity (xanthan depolymerase [2]): not inhibited
- growth of culture B-15992 (culture B-15992 [4]; 10% salt concentration): completely inhibited
- growth of culture B-15992 (culture B-15992 [4]; salt concentration between 6-8%): somewhat slower
- growth of culture B-15992 (culture B-15992 [4]; up to 5% salt (NaCl) concentration): not inhibited

Compound: [Na+].[OH-] [NaOH]
- inhibition of xanthan depolymerase activity (xanthan depolymerase [2]; 5.0 mM (Trizma ph 8.5)): not inhibited

Compound: NC(CO)(CO)CO [Trizma]
- inhibition of xanthan depolymerase activity (xanthan depolymerase [2]): not inhibited

Compound: N.N.O=S(=O)(O)O [ammonium sulfate]
- inhibition of xanthan depolymerase activity (xanthan depolymerase [2]): not inhibited

Compound: Clc1ccccc1 [chlorobenzene]
- inhibition of xanthan depolymerase activity (xanthan depolymerase [2]; 100 ppm): not inhibited

Compound: ClC(Cl)Cl [chloroform]
- inhibition of xanthan depolymerase activity (xanthan depolymerase [2]): not inhibited

Compound: O=C(O)CC(O)(CC(=O)O)C(=O)O [citric acid]
- inhibition of xanthan depolymerase activity (xanthan depolymerase [2]; 5.5 mM): not inhibited

Compound: N#CC(Br)(Br)C(N)=O [dow Antimicrobial 7287, 2,2-dibromo-3-nitrilopropionamide]
- inhibition of xanthan depolymerase activity (xanthan depolymerase [2]; 100 ppm): failed to inhibit

Compound: [Cl][Fe]([Cl])[Cl] [ferric chloride]
- % Inhibition (xanthan depolymerase [2]): 100%
- inhibition of xanthan depolymerase activity (xanthan depolymerase [2]): inhibited strongly

Compound: c1c[nH]cn1 [imidazole]
- % Inhibition (xanthan depolymerase [2]): 30%

Compound: NC(=O)CI [iodoacetamide]
- % Inhibition (xanthan depolymerase [2]; inhibitor 1 mM): 0%

Compound: O=C(O)CI [iodoacetic acid]
- % Inhibition (xanthan depolymerase [2]): 0%

Compound: O=C(O)c1cc[c]([Hg+])cc1.[OH-] [p-hydroxymercuribenzoate]
- % Inhibition (xanthan depolymerase [2]; inhibitor 1 mM): 40%

Compound: [N-]=[N+]=[N-] [sodium azide]
- % Inhibition (xanthan depolymerase [2]; inhibitor 1 mM): 0%

Compound: OCl [sodium hypochlorite]
- inhibition of xanthan depolymerase activity (xanthan depolymerase [2]; 100 ppm): not inhibited

Compound: On1ccccc1=S [sodium omadine]
- inhibition of xanthan depolymerase activity (xanthan depolymerase [2]): failed to inhibit

Compound: NNC(N)=S [thiosemicarbazide]
- % Inhibition (xanthan depolymerase [2]; inhibitor 1 mM): 20%

Compound: NC(N)=S [thiourea]
- % Inhibition (xanthan depolymerase [2]; inhibitor 1 mM): 20%

Compound: c1ccc(-c2ccccn2)nc1 [α, α' bipyridyl]
- % Inhibition (xanthan depolymerase [2]; inhibitor 1 mM): 30%

Compound: O=C(CCl)c1ccc(O)c(O)c1 [α-chloro-3,4-dihydroxyacetophenone]
- inhibition of xanthan depolymerase activity (xanthan depolymerase [2]; 100 ppm): not inhibited

Compound: Triton X-100
- inhibition of xanthan depolymerase activity (xanthan depolymerase [2]; 4%): not inhibited
- Viscosity (cps after days incubation) Aerobic (culture B-15992 [3]; 500 ppm, aerobic): 90 cps
- Viscosity (cps after days incubation) Anaerobic (culture B-15992 [3]; 500 ppm): 300 cps

Compound: arsenomolybdate
- inhibition of xanthan depolymerase activity (xanthan depolymerase [2]; concentrations of Table VI): inhibited strongly
- % Inhibition (xanthan depolymerase [2]; inhibitor 4%): 100%

Compound: chlorophenol
- inhibition of xanthan depolymerase activity (xanthan depolymerase [2]; 100 ppm): not inhibited

Compound: ferrous sulfate
- inhibition of xanthan depolymerase activity (xanthan depolymerase [2]; 5.5 mM): not inhibited
